Data taken from PubChem BioAssay AID1745844 (Carcinogenic Potency Database (CPDB), 2022).
The source made the active and inactive calls. The rule behind the calls is not given here.

System: rodent lifetime carcinogenesis bioassay, tumor incidence TD50
Assay: chronic cancer bioassays in animals – CPDB, compiled studies (AID 1745844)
Conditions: by gavage

| SMILES | carcinogen call (rat, strain Sprague-Dawley, females, site: any site (literature study), lesion: several types, types named in the paper, dosed 104 weeks, study length 104 weeks) | carcinogen call (rat, strain Sprague-Dawley, females, site: kidney, lesion: one or several types, types not named, dosed 52 weeks, study length 52 weeks) | TD50 (rat, strain Sprague-Dawley, females, site: liver, lesion: hepatocellular adenoma, dosed 104 weeks, study length 104 weeks) | carcinogen call (rat, strain Sprague-Dawley, males, site: any site (literature study), lesion: several types, types named in the paper, dosed 104 weeks, study length 104 weeks) | carcinogen call (rat, strain Sprague-Dawley, males, site: kidney, lesion: one or several types, types not named, dosed 52 weeks, study length 52 weeks) | carcinogen call (rat, strain Sprague-Dawley, males, site: liver, lesion: several types, types named in the paper, dosed 104 weeks, study length 104 weeks) | carcinogen call (mouse, strain B6C3F1, females, site: any site (literature study), lesion: several types, types named in the paper, dosed 104 weeks, study length 104 weeks) | TD50 (mouse, strain B6C3F1, females, site: lung, lesion: alveolar/bronchiolar adenoma + alveolar/bronchiolar carcinoma, dosed 104 weeks, study length 104 weeks) [mg/kg/day] | carcinogen call (mouse, strain B6C3F1, males, site: any site (literature study), lesion: several types, types named in the paper, dosed 104 weeks, study length 104 weeks) | TD50 (mouse, strain B6C3F1, males, site: lung, lesion: alveolar/bronchiolar adenoma + alveolar/bronchiolar carcinoma, dosed 104 weeks, study length 104 weeks) [mg/kg/day] | TD50 (rat, strain Fischer 344, females, site: any site (literature study), lesion: several types, types named in the paper, dosed 104 weeks, study length 104 weeks) | TD50 (rat, strain Fischer 344, males, site: subcutaneous tissue, lesion: fibrosarcoma + fibrous histiocytoma + sarcoma, dosed 104 weeks, study length 104 weeks) |
| --- | --- | --- | --- | --- | --- | --- | --- | --- | --- | --- | --- | --- |
| CN1C(C(=O)Nc2ccccn2)=C(O)c2sc(Cl)cc2S1(=O)=O | negative (inactive) | negative (inactive) | 13.2 mg/kg/day (inactive) | negative (inactive) | negative (inactive) | negative (inactive) |  |  |  |  |  |  |
| C=C(C)C#N |  |  |  |  |  |  | negative (inactive) | 178 | negative (inactive) | 160 | 323 mg/kg/day (inactive) | 205 mg/kg/day (inactive) |
